The source of these data is patent publication US7964565B2, “Method of inhibiting inflammation in a mammal by administering Bcl protein” (University of Washington Center for Commercialization, a …, priority 2004, dated 2011).

Assay [1] deals with C57BL/6 mice, hind-limb skeletal muscle ischemia-reperfusion injury. Briefly: Hind-limb tourniquet ischemia-reperfusion, plasma creatine kinase. It counts as in vivo, mouse. As to conditions: tourniquet 90 min, reperfusion 3 hours. The method, then:
Skeletal muscle was made ischemic by applying a tourniquet to the hind-limbs of C57BL/6 mice for 90 minutes, then removing the tourniquet and allowing reperfusion for an additional 3 hours. Mice were treated with active peptide 1 (SEQ ID NO:17) or peptide 2 (SEQ ID NO:18) or peptide 3 (SEQ ID NO:19), or with the scrambled (control) peptide (SEQ ID NO:20). Peptide-1 (SEQ ID NO:17) is from the BH4 region of Bcl-2. Peptide-2 (SEQ ID NO:18) is from the first alpha helix of A1. Peptide-3 (SEQ ID NO:19) is from the BH4 region of Bcl-XL. The amino acid sequences of peptide 1 (SEQ ID NO:17), peptide 2 (SEQ ID NO:18), peptide 3 (SEQ ID NO:19), and the scrambled (control) peptide (SEQ ID NO:20) are set forth in Table 1.
At the end of the 3 hours of reperfusion the mice were killed, and blood was taken for determination of plasma creatine kinase (CK) concentration. The CK concentration was used as an indicator of muscle injury. Elevated levels of CK indicate higher levels of muscle injury. […] The CK concentration for peptide 1 (SEQ ID NO:17) treated mice was 19,020+/−5481 IU/L (n=12) compared with control peptide (SEQ ID NO:20) where CK concentration was 60,530+/−5759 IU/L (n=12). The CK concentration for peptide 2 (SEQ ID NO:18) treated mice was 33,860+/−5997 IU/L (n=11) compared with control peptide (SEQ ID NO:20) where CK concentration was 69,430+/−11,170 IU/L (n=12). The CK concentration for peptide 3 (SEQ ID NO:19) treated mice was 49,500+/−3,901 IU/L (n=5) compared with control peptide (SEQ ID NO:20) where CK concentration was 80,880+/−11,430 IU/L (n=6).

Assay [2] relates to C57BL/6 mice, hind limb skeletal muscle ischemia-reperfusion injury. As to the kind of experiment: Hind limb ischemia-reperfusion by aortic cross-clamp, plasma creatine kinase. As to conditions: protein injected i.p. the day before 90 min hind limb ischemia and 180 min reperfusion; 12 mice per group; rBcl-2 1 μg per mouse vs combined rUbiquitin/vehicle; rA1 vs rUbiquitin. The class given is in vivo. The method, then:
Mouse skeletal muscle was made ischemic by cross-clamping the aorta distal to the renal artery for 90 minutes, then the clamp was removed and hind limb reperfusion continued for 3 hours. At the end of reperfusion (3 hours after clamp removal) the mice were killed, and the concentration of plasma creatine kinase (CK) was measured and used as an indicator of injury (creatine kinase concentration increases as a result of skeletal muscle injury).
Blood from EμT-Bcl-2 mice and their littermate control mice was drawn into heparin and plasma was extracted by centrifugation. One ml of plasma from EμT-Bcl-2 mice, or one ml of plasma from littermate control mice, was injected into the peritoneum of C57BL/6 mice the day before the mice were subjected to 90 minutes of ischemia and 3 hours of reperfusion as described in Example 1 herein. Blood was drawn from the mice and plasma CK concentration was determined at the end of reperfusion.
Control Jaws II cells expressed only EGFP. […]
Medium from cell cultures of hBcl-2-Jaws II cells and EGFP-Jaws II cells was harvested 24 hours after the start of incubation and concentrated approximately 10-fold using centrifugal filters with a molecular size cut-off of approximately 3 kD. […] Plasma was extracted from the mice after ischemia-reperfusion, and plasma CK concentration was determined. […]

[3] abbreviates: experiment with peptide 2, n=11 peptide, n=12 control.

In the case of “control peptide: scrambled (control) peptide; TWHMYGNQRDYIGDRSKIVYKLEYE (SEQ ID NO:20)”, the “plasma CK concentration” value was 60,530+/−5759 IU/L in assay [1] (experiment with peptide 1, n=12 per group); 69,430+/−11,170 IU/L in assay [1] (setting [3]); 80,880+/−11,430 IU/L in assay [1] (experiment with peptide 3, n=5 peptide, n=6 control).
As for “peptide 2: from the first alpha helix of A1; FGYIYRLAQDYLQCVLQIPZPGSGP (SEQ ID NO:18)”, the “plasma CK concentration” value in assay [1] (setting [3]) is 33,860+/−5997 IU/L.

B1: rA1: human A1 minus 25 amino acids at the carboxy terminal and addition of 6 histidine on the remaining protein (protein, listed as Homo sapiens)
chain: MTDCEFGYIYRLAQDYLQCVLQIPQPGSGPSKTSRVLQNVAFSVQKEVEKNLKSCLDNVNVVSVDTARTLFNQVMEKEFEDGIINWGRIVTIFAFEGILIKKLLRQQIAPDVDTYKEISYFVAEFIMNNTGEWIRQNGGWENGFVKKFEPKSHHHHHH
Regarding B1, in assay [2], the “plasma creatine kinase levels vs control” value is given as “significantly (p<0.05) lower”.
